Laboratory results taken from patent publication US7507739B2, “6-[(substituted)phenyl]triazolopyrimidines as anticancer agents” (Wyeth, priority 2003, dated 2009).
One block for each compound: values may come before it.

Tests used:
COLO 205 cells = experiment: MTS cytotoxicity test with COLO 205 cells; type: cell-based, human; settings: 3 days
Method in brief: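 COLO 205 human colon carcinoma cells, 1000 per well, exposed 3 days at 37° C to nine 2-fold dilutions, typical final top concentration 5 μM. MTS absorbance normalized to time-0 plate; IC50 is concentration giving colour yield midway between untreated and fully killed controls.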

pure tubulin = experiment: Tubulin polymerization test with pure tubulin without GTP; type: biochemical, bovine; settings: no GTP
Method: (§1) Medium is RPMI-1640 with L-glutamine, supplemented with 10% heat-inactivated fetal calf serum, 100 units/ml penicillin, and 100 μg/ml streptomycin (Gibco, Grand Island, N.Y.). Microtubule-associated protein (MAP)-rich tubulin, containing about 70% tubulin and 30% MAPs (#ML113), and highly purified tubulin (>99% pure, #TL238), both from bovine brain, are obtained from Cytoskeleton, Inc., Denver, Colo. PEM buffer (80 mM piperazine-N,N′-bis[2-ethanesulfonic acid], pH 6.9, 1 mM ethylene glycol-bis(β-aminoethyl ether)-N,N,N′,N′-tetraacetic acid, 1 mM magnesium chloride) and guanosine 5′-triphosphate (GTP) are also obtained from Cytoskeleton. [3H]paclitaxel, specific activity 14.7 Ci/mmol, is purchased from Moravek Biochemicals (Brea, Calif.). [^3H]vinblastine, specific activity 9.60 Ci/mmol and MicroSpin G-50 columns are obtained from Amersham Biosciences (Piscataway, N.J.). […] Other reagents are obtained from Sigma (St. Louis, Mo.).
Two variations of this procedure are done, one using MAP-rich tubulin and one using pure tubulin.
The procedure with pure tubulin is similar except for the following changes. […] The supernatant after centrifugation is dispensed to a 96-well plate already containing compounds. Each compound is tested in duplicate at six serial 3-fold dilutions starting at 24.3 μM. The plate reader is thermostated at 35°.

tubulin heterodimer = experiment: Competitive binding test, [3H]vinblastine; parameters: species or system bovine; settings: [3H]vinblastine 100 nM
Method: as §1
(§2) The binding of examples of this invention to highly purified tubulin is studied by competitive inhibition methods. […] To study possible competition at the taxane site, on the other hand, polymerized tubulin (microtubules) is used because paclitaxel binds preferentially to microtubules.
Highly purified tubulin is dissolved in PEM buffer without GTP and used at a final concentration of 1.0 to 1.3 mg/ml (10 to 13 μM). […] These solutions are incubated at 24° for 1 hr and then applied to MicroSpin G-50 columns which are centrifuged for 2 min at 3000 rpm in an Eppendorf 5415C microfuge. An aliquot of each column effluent (containing tubulin and bound radioligand) is mixed with scintillation fluid and counted in a liquid scintillation spectrometer. […] The ability of the competitor to inhibit the binding of the radioligand is expressed as a percentage of control binding in the absence of any competitor.

microtubules = experiment: Competitive binding test, [3H]paclitaxel; parameters: species or system bovine; settings: [3H]paclitaxel 2.1 μM, competitor 20 μM (5 μM for unlabeled paclitaxel)
Method: as §1, §2
For competition with [^3H]paclitaxel, highly purified tubulin is dissolved in PEM buffer containing 0.75 M glutamate and 25 μM dideoxy-GTP; final protein concentration is 0.25 to 0.35 mg/mL (2.5 to 3.5 μM). These conditions foster the rapid formation of short, stable microtubule polymers (Hamel, E., del Campo, A. A., and Lin, C. M. Stability of tubulin polymers formed with dideoxyguanosine nucleotides in the presence and absence of microtubule-associated proteins. J. Biol. Chem., 259: 2501-2508, 1984). This solution is incubated for 30 min at 37° to allow microtubules to form. Then [^3H]paclitaxel (final concentration of 2.1 μM, 1.2 Ci/mmol) and competitor (final concentration of 20 μM, except 5 μM for unlabeled paclitaxel) are added to aliquots of the polymerized tubulin solution and incubation at 37° is continued for another 30 min. […] The reactions are then centrifuged at top speed in an Eppendorf 5415C microfuge for 20 min at room temperature in order to pellet the microtubule protein. Triplicate aliquots of each supernatant are mixed with scintillation fluid and counted in a liquid scintillation spectrometer. From the amount of radioactivity in the supernatants and the measured total starting radioactivity, the amount of [^3H]paclitaxel bound to pelleted microtubule protein is calculated. The ability of each competitor to inhibit radioligand binding to pelleted protein is expressed as a percent of controls without any competitor.

SMILES: C[C@H](Nc1c(-c2c(F)cc(OCCCN(C)C)cc2F)c(Cl)nc2ncnn12)C(F)(F)F.Cl [Example 1a, 5-chloro-6-{4-[3-(dimethylamino)propoxy]-2,6-difluorophenyl}-N-[(1S)-2,2,2-trifluoro-1-methylethyl][1,2,4]triazolo[1,5-a]pyrimidin-7-amine hydrogen chloride Salt]
- IC50 (COLO 205 cells; Homo sapiens, COLO 205, 72 h): 56 nM
- absorbance increase, polymerization of pure tubulin (pure tubulin; 2.7 μM): no effect
- absorbance increase, polymerization of pure tubulin (pure tubulin; 8.1 μM): lower and less rapid increase
- A340 at 0 min (pure tubulin; 24.3 μM): 0
- A340 at 5 min (pure tubulin; 24.3 μM): 0.22
- A340 at 10 min (pure tubulin; 24.3 μM): 0.23
- A340 at 15 min (pure tubulin; 24.3 μM): 0.22
- A340 at 20 min (pure tubulin; 24.3 μM): 0.21
- absorbance increase, polymerization of pure tubulin (pure tubulin; 24.3 μM, first 5 min): rapid increase in absorbance
- [3H]Vinblastine binding, percent of control without competitor, Mean (tubulin heterodimer): 12%
- [3H]Paclitaxel binding, percent of control without competitor, Mean (microtubules): 108%

SMILES: CNCCCOc1cc(F)c(-c2c(Cl)nc3ncnn3c2N[C@@H](C)C(F)(F)F)c(F)c1.Cl [Example 2a, 5-Chloro-6-{2,6-difluoro-4-[3-(methylamino)propoxy]phenyl}-N-[(1S)-2,2,2-trifluoro-1-methylethyl][1,2,4]triazolo[1,5-a]pyrimidin-7-amine hydrogen chloride]
- IC50 (COLO 205 cells): 31 nM
- absorbance increase, polymerization of pure tubulin (pure tubulin; 2.7 μM): no effect
- absorbance increase, polymerization of pure tubulin (pure tubulin; 8.1 μM): lower and less rapid increase
- A340 at 0 min (pure tubulin; 24.3 μM): 0
- A340 at 5 min (pure tubulin; 24.3 μM): 0.25
- A340 at 10 min (pure tubulin; 24.3 μM): 0.24
- A340 at 15 min (pure tubulin; 24.3 μM): 0.23
- A340 at 20 min (pure tubulin; 24.3 μM): 0.22
- absorbance increase, polymerization of pure tubulin (pure tubulin; 24.3 μM, first 5 min): rapid increase in absorbance
- [3H]Vinblastine binding, percent of control without competitor, Mean (tubulin heterodimer): 11%
- [3H]Paclitaxel binding, percent of control without competitor, Mean (microtubules): 104%

SMILES: CNCCCOc1cc(F)c(-c2c(Cl)nc3ncnn3c2NCC(F)(F)F)c(F)c1.Cl [Example 3a, 5-Chloro-6-{2,6-difluoro-4-[3-(methylamino)propoxy]phenyl}-N-(2,2,2-trifluoroethyl)[1,2,4]triazolo[1,5-a]pyrimidin-7-amine hydrogen chloride Salt]
- IC50 (COLO 205 cells): 29 nM
- absorbance increase, polymerization of pure tubulin (pure tubulin; 2.7 μM): no effect
- absorbance increase, polymerization of pure tubulin (pure tubulin; 8.1 μM): lower and less rapid increase
- A340 at 0 min (pure tubulin; 24.3 μM): 0
- A340 at 5 min (pure tubulin; 24.3 μM): 0.19
- A340 at 10 min (pure tubulin; 24.3 μM): 0.20
- A340 at 15 min (pure tubulin; 24.3 μM): 0.20
- A340 at 20 min (pure tubulin; 24.3 μM): 0.20
- absorbance increase, polymerization of pure tubulin (pure tubulin; 24.3 μM, first 5 min): rapid increase in absorbance
- [3H]Vinblastine binding, percent of control without competitor, Mean (tubulin heterodimer): 11%
- [3H]Paclitaxel binding, percent of control without competitor, Mean (microtubules): 105%

SMILES: CN(C)CCCOc1cc(F)c(-c2c(Cl)nc3ncnn3c2NCC(F)(F)F)c(F)c1.Cl [Example 4a, 5-Chloro-6-{4-[3-(dimethylamino)propoxy]-2,6-difluorophenyl}-N-(2,2,2-trifluoroethyl)[1,2,4]triazolo[1,5-a]pyrimidin-7-amine Hydrogen chloride Salt]
- IC50 (COLO 205 cells; Homo sapiens, COLO 205, 72 h): 53 nM
- absorbance increase, polymerization of pure tubulin (pure tubulin; 2.7 μM): no effect
- absorbance increase, polymerization of pure tubulin (pure tubulin; 8.1 μM): lower and less rapid increase
- A340 at 0 min (pure tubulin; 24.3 μM): 0
- A340 at 5 min (pure tubulin; 24.3 μM): 0.14
- A340 at 10 min (pure tubulin; 24.3 μM): 0.16
- A340 at 15 min (pure tubulin; 24.3 μM): 0.16
- A340 at 20 min (pure tubulin; 24.3 μM): 0.15
- absorbance increase, polymerization of pure tubulin (pure tubulin; 24.3 μM, first 5 min): rapid increase in absorbance
- [3H]Vinblastine binding, percent of control without competitor, Mean (tubulin heterodimer): 15%
- [3H]Paclitaxel binding, percent of control without competitor, Mean (microtubules): 104%

- [3H]Vinblastine binding, percent of control without competitor, Mean (tubulin heterodimer): 19%
- [3H]Paclitaxel binding, percent of control without competitor, Mean (microtubules): 104%
SMILES: C[C@H](Nc1c(-c2c(F)cc(OCCCO)cc2F)c(Cl)nc2ncnn12)C(F)(F)F [Example 20, 3-[4-(5-Chloro-7-{[(1S)-2,2,2-trifluoro-1-methylethyl]amino}[1,2,4]triazolo[1,5-a]pyrimidin-6-yl)-3,5-difluorophenoxy]propan-1-ol]
- IC50 (COLO 205 cells; Homo sapiens, COLO 205, 72 h): 67 nM
- A340 at 0 min (pure tubulin; 24.3 μM): 0
- A340 at 5 min (pure tubulin; 24.3 μM): 0.03
- A340 at 10 min (pure tubulin; 24.3 μM): 0.03
- A340 at 15 min (pure tubulin; 24.3 μM): 0.03
- A340 at 20 min (pure tubulin; 24.3 μM): 0.03

- [3H]Vinblastine binding, percent of control without competitor, Mean (tubulin heterodimer): 14%
- [3H]Paclitaxel binding, percent of control without competitor, Mean (microtubules): 99%
SMILES: C[C@H](Nc1c(-c2c(F)cc(OCCCN(C)C)cc2F)c(Br)nc2ncnn12)C(F)(F)F [Example 25, 5-Bromo-6-{4-[3-(dimethylamino)propoxy]-2,6-difluorophenyl}-N-[(1S)-2,2,2-trifluoro-1-methylethyl][1,2,4]triazolo[1,5-a]pyrimidin-7-amine]
- IC50 (COLO 205 cells; Homo sapiens, COLO 205, 72 h): 96 nM
- absorbance increase, polymerization of pure tubulin (pure tubulin; 2.7 μM): no effect
- absorbance increase, polymerization of pure tubulin (pure tubulin; 8.1 μM): lower and less rapid increase
- A340 at 0 min (pure tubulin; 24.3 μM): 0
- A340 at 5 min (pure tubulin; 24.3 μM): 0.22
- A340 at 10 min (pure tubulin; 24.3 μM): 0.23
- A340 at 15 min (pure tubulin; 24.3 μM): 0.22
- A340 at 20 min (pure tubulin; 24.3 μM): 0.22
- absorbance increase, polymerization of pure tubulin (pure tubulin; 24.3 μM, first 5 min): rapid increase in absorbance

- [3H]Vinblastine binding, percent of control without competitor, Mean (tubulin heterodimer): 14%
- [3H]Paclitaxel binding, percent of control without competitor, Mean (microtubules): 91%
SMILES: OCCCOc1cc(F)c(-c2c(Cl)nc3ncnn3c2C2CCCCCC2)c(F)c1 [Example 30, 3-[4-(5-Chloro-7-cycloheptyl[1,2,4]triazolo[1,5-a]pyrimidin-6-yl)-3,5-difluorophenoxy]propan-1-ol]
- IC50 (COLO 205 cells; Homo sapiens, COLO 205, 72 h): 30 nM
- A340 at 0 min (pure tubulin; 24.3 μM): 0
- A340 at 5 min (pure tubulin; 24.3 μM): 0.02
- A340 at 10 min (pure tubulin; 24.3 μM): 0.01
- A340 at 15 min (pure tubulin; 24.3 μM): 0.01
- A340 at 20 min (pure tubulin; 24.3 μM): 0.01

- [3H]Vinblastine binding, percent of control without competitor, Mean (tubulin heterodimer): 15%
- [3H]Paclitaxel binding, percent of control without competitor, Mean (microtubules): 93%
SMILES: CNCCCOc1cc(F)c(-c2c(Cl)nc3ncnn3c2C2CCCCCC2)c(F)c1.O=C(O)C(F)(F)F [Example 32, 3-[4-(5-Chloro-7-cycloheptyl[1,2,4]triazolo[1,5-a]pyrimidin-6-yl)-3,5-difluorophenoxy]-N-methylpropan-1-amine trifluoroacetic acid salt]
- IC50 (COLO 205 cells; Homo sapiens, COLO 205, 72 h): 6.6 nM
- absorbance increase, polymerization of pure tubulin (pure tubulin; 2.7 μM): no effect
- absorbance increase, polymerization of pure tubulin (pure tubulin; 8.1 μM): lower and less rapid increase
- A340 at 0 min (pure tubulin; 24.3 μM): 0
- A340 at 5 min (pure tubulin; 24.3 μM): 0.26
- A340 at 10 min (pure tubulin; 24.3 μM): 0.26
- A340 at 15 min (pure tubulin; 24.3 μM): 0.25
- A340 at 20 min (pure tubulin; 24.3 μM): 0.25
- absorbance increase, polymerization of pure tubulin (pure tubulin; 24.3 μM, first 5 min): rapid increase in absorbance

- [3H]Vinblastine binding, percent of control without competitor, Mean (tubulin heterodimer): 92%
- [3H]Paclitaxel binding, percent of control without competitor, Mean (microtubules): 35%
SMILES: CC(=O)O[C@H]1C(=O)[C@@]2(C)[C@H]([C@H](OC(=O)c3ccccc3)[C@]3(O)C[C@H](OC(=O)[C@H](O)[C@@H](NC(=O)c4ccccc4)c4ccccc4)C(C)=C1C3(C)C)[C@]1(OC(C)=O)CO[C@@H]1C[C@@H]2O [Paclitaxel, reference compound]
- IC50 (COLO 205 cells; Homo sapiens, COLO 205, 72 h): 3.3 nM
- A340 at 0 min (pure tubulin; 24.3 μM): 0
- A340 at 5 min (pure tubulin; 24.3 μM): 0
- A340 at 10 min (pure tubulin; 24.3 μM): 0
- A340 at 15 min (pure tubulin; 24.3 μM): 0.01
- A340 at 20 min (pure tubulin; 24.3 μM): 0.01

- [3H]Vinblastine binding, percent of control without competitor, Mean (tubulin heterodimer): 5%
- [3H]Paclitaxel binding, percent of control without competitor, Mean (microtubules): 22%
SMILES: CC[C@]1(O)C[C@H]2CN(CCc3c([nH]c4ccccc34)[C@@](C(=O)OC)(c3cc4c(cc3OC)N(C=O)[C@H]3[C@@](O)(C(=O)OC)[C@H](OC(C)=O)[C@]5(CC)C=CCN6CC[C@]43[C@@H]65)C2)C1 [Vincristine, reference compound]
- IC50 (COLO 205 cells; Homo sapiens, COLO 205, 72 h): 2.6 nM
- A340 at 0 min (pure tubulin; 24.3 μM): 0
- A340 at 5 min (pure tubulin; 24.3 μM): 0.01
- A340 at 10 min (pure tubulin; 24.3 μM): 0.01
- A340 at 15 min (pure tubulin; 24.3 μM): 0
- A340 at 20 min (pure tubulin; 24.3 μM): 0
